# Molecular target: human ERK-2 (Mitogen Activated Kinase 1) (Homo sapiens (Human), UniProt P28482)
# Assay: ERK-2 Enzymatic Assay
# Type: biochemical
# Settings: human ERK-2 enzyme 5 nM, 25 μM ATP, S/T17 peptide substrate; isomer = configuration of CR2R3
# In short: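 Recombinant human ERK-2 (aa 8-360, N-terminal 6-His, E. coli) with 3-fold serially diluted compound. Per-well rates from linear fits converted to percent of control; IC50 by four-parameter fit.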
# human ERK-2 (Mitogen Activated Kinase 1), sequence (P28482 8-360): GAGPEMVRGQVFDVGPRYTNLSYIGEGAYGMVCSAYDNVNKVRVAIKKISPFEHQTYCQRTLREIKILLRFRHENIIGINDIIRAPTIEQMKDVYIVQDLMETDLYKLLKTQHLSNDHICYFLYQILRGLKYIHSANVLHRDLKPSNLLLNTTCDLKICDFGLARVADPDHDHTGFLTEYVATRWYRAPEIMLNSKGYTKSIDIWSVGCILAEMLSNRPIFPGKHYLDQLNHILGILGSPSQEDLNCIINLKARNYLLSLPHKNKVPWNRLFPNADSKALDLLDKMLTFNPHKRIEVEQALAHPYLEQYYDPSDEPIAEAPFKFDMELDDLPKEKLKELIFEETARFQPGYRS
row,SMILES,IC50 [nM]
1,"CC(C)C[C@H]1CN(C)c2cc(-c3ccnc(Nc4ccnn4C)c3)cc3nnc1n23 [(S) I-20, 4-(3-isobutyl-5-methyl-4,5-dihydro-3H-1,2,2a^1,5-tetraazaacenaphthylen-7-yl)-N-(1-methyl-1H-pyrazol-5-yl)pyridin-2-amine]",0.316
2,"Cn1nccc1Nc1nccc(-c2cc3n4c(nnc4c2)[C@@H](Cc2ccc(F)cc2)CN3)n1 [(S) I-21, 4-(3-(4-fluorobenzyl)-4,5-dihydro-3H-1,2,2a^1,5-tetraazaacenaphthylen-7-yl)-N-(1-methyl-1H-pyrazol-5-yl)pyrimidin-2-amine]",< 0.02
3,"CN1C(=O)C[C@H](Cc2ccc(Cl)cc2)c2nnc3cc(-c4ccnc(Nc5ccnn5C)n4)cc1n23 [(S) I-22, 9-(4-chlorobenzyl)-6-methyl-4-(2-((1-methyl-1H-pyrazol-5-yl)amino)pyrimidin-4-yl)-8,9-dihydro-1,2,2a^1,6-tetraazabenzo[cd]azulen-7(6H)-one]",< 0.02
4,"COc1ccc(C[C@H]2CNc3cc(-c4ccnc(Nc5ccnn5C)n4)cc4nnc2n34)cn1 [(S) I-24, 4-(3-((6-methoxypyridin-3-yl)methyl)-4,5-dihydro-3H-1,2,2a^1,5-tetraazaacenaphthylen-7-yl)-N-(1-methyl-1H-pyrazol-5-yl)pyrimidin-2-amine]",< 0.02
5,"Cn1nccc1Nc1nccc(-c2cc3n4c(nnc4c2)[C@@H](COCc2ccccc2)CCO3)n1 [(S) I-29, 4-(9-((benzyloxy)methyl)-8,9-dihydro-7H-6-oxa-1,2,2a^1-triazabenzo[cd]azulen-4-yl)-N-(1-methyl-1H-pyrazol-5-yl)pyrimidin-2-amine]",< 0.02
6,"Cn1nccc1Nc1cc(-c2cc3n4c(nnc4c2)[C@@H](Cc2ccccc2Cl)CCO3)ccn1 [(S) I-30, 4-(9-(2-chlorobenzyl)-8,9-dihydro-7H-6-oxa-1,2,2a^1-triazabenzo[cd]azulen-4-yl)-N-(1-methyl-1H-pyrazol-5-yl)pyridin-2-amine]",< 0.02
7,"CN1C[C@H](Cc2ccc(F)cc2)c2nnc3cc(-c4ccnc(Nc5ccnn5C)n4)cc1n23 [(S) I-31, 4-(3-(4-fluorobenzyl)-5-methyl-4,5-dihydro-3H-1,2,2a^1,5-tetraazaacenaphthylen-7-yl)-N-(1-methyl-1H-pyrazol-5-yl)pyrimidin-2-amine]",< 0.02
8,"Cn1nccc1Nc1nccc(-c2cc3n4c(nnc4c2)[C@@H](Cc2ccc(Cl)cc2)CCO3)n1 [(S) I-36, 4-(9-(4-chlorobenzyl)-8,9-dihydro-7H-6-oxa-1,2,2a^1-triazabenzo[cd]azulen-4-yl)-N-(1-methyl-1H-pyrazol-5-yl)pyrimidin-2-amine]",< 0.02
9,"Cn1nccc1Nc1cc(-c2cc3n4c(nnc4c2)[C@H](Cc2ccccc2)CO3)ccn1 [(S) I-38, 4-(3-benzyl-3,4-dihydro-5-oxa-1,2,2a^1-triazaacenaphthylen-7-yl)-N-(1-methyl-1H-pyrazol-5-yl)pyridin-2-amine]",4.34
10,"CN1C(=O)C[C@H](Cc2ccc(Cl)cc2)c2nnc3cc(-c4ccnc(Nc5ccnn5C)c4)cc1n23 [(S) I-40, 9-(4-chlorobenzyl)-6-methyl-4-(2-((1-methyl-1H-pyrazol-5-yl)amino)pyridin-4-yl)-8,9-dihydro-1,2,2a^1,6-tetraazabenzo[cd]azulen-7(6H)-one]",< 0.02
11,"Cn1nccc1Nc1nccc(-c2cc3n4c(nnc4c2)[C@H](Cn2cc(Cl)cn2)CCO3)n1 [(S) I-42, (S)-4-(9-((4-Chloro-1H-pyrazol-1-yl)methyl)-8,9-dihydro-7H-6-oxa-1,2,2a^1-triazabenzo[cd]azulen-4-yl)-N-(1-methyl-1H-pyrazol-5-yl)pyrimidin-2-amine]",0.131
12,"COc1ncccc1C[C@H]1CN(C)c2cc(-c3ccnc(Nc4ccnn4C)n3)cc3nnc1n23 [(S) I-43, 4-(3-((2-methoxypyridin-3-yl)methyl)-5-methyl-4,5-dihydro-3H-1,2,2a^1,5-tetraazaacenaphthylen-7-yl)-N-(1-methyl-1H-pyrazol-5-yl)pyrimidin-2-amine]",1.33
13,"Cn1nccc1Nc1nccc(-c2cc3n4c(nnc4c2)[C@H](Cc2ccc(F)cc2)CO3)n1 [(S) I-44, 4-(3-(4-fluorobenzyl)-3,4-dihydro-5-oxa-1,2,2a^1-triazaacenaphthylen-7-yl)-N-(1-methyl-1H-pyrazol-5-yl)pyrimidin-2-amine]",5
14,"CC(C)C[C@@H]1COc2cc(-c3ccnc(Nc4ccnn4C)n3)cc3nnc1n23 [(S) I-45, 4-(3-isobutyl-3,4-dihydro-5-oxa-1,2,2a^1-triazaacenaphthylen-7-yl)-N-(1-methyl-1H-pyrazol-5-yl)pyrimidin-2-amine]",20.9
15,"COc1ccc(C[C@@H]2COc3cc(-c4ccnc(Nc5ccnn5C)n4)cc4nnc2n34)cc1F [(S) I-46, 4-(3-(3-fluoro-4-methoxybenzyl)-3,4-dihydro-5-oxa-1,2,2a^1-triazaacenaphthylen-7-yl)-N-(1-methyl-1H-pyrazol-5-yl)pyrimidin-2-amine]",2.47
16,"Cn1nccc1Nc1cc(-c2cc3n4c(nnc4c2)[C@H](Cn2cc(Cl)cn2)CCO3)ccn1 [(S) I-47, 4-(9-((4-chloro-1H-pyrazol-1-yl)methyl)-8,9-dihydro-7H-6-oxa-1,2,2a^1-triazabenzo[cd]azulen-4-yl)-N-(1-methyl-1H-pyrazol-5-yl)pyridin-2-amine]",0.465
17,"Cn1nccc1Nc1cc(-c2cc3n4c(nnc4c2)[C@H](Cc2ccc(Cl)cc2)CO3)ccn1 [(S) I-48, 4-(3-(4-chlorobenzyl)-3,4-dihydro-5-oxa-1,2,2a^1-triazaacenaphthylen-7-yl)-N-(1-methyl-1H-pyrazol-5-yl)pyridin-2-amine]",12.3
18,"COc1ccc(C[C@@H]2COc3cc(-c4ccnc(Nc5ccnn5C)n4)cc4nnc2n34)cc1 [(S) I-50, 4-(3-(4-methoxybenzyl)-3,4-dihydro-5-oxa-1,2,2a^1-triazaacenaphthylen-7-yl)-N-(1-methyl-1H-pyrazol-5-yl)pyrimidin-2-amine]",7.12
19,"Cn1nccc1Nc1cc(-c2cc3n4c(nnc4c2)[C@H](Cc2ccc(F)c(F)c2)CO3)ccn1 [(S) I-54, 4-(3-(3,4-difluorobenzyl)-3,4-dihydro-5-oxa-1,2,2a^1-triazaacenaphthylen-7-yl)-N-(1-methyl-1H-pyrazol-5-yl)pyridin-2-amine]",22.3
20,"Cn1nccc1Nc1nccc(-c2cc3n4c(nnc4c2)[C@H](Cn2cc(C4CC4)cn2)CCO3)n1 [(S) I-56, 4-(9-((4-cyclopropyl-1H-pyrazol-1-yl)methyl)-8,9-dihydro-7H-6-oxa-1,2,2a^1-triazabenzo[cd]azulen-4-yl)-N-(1-methyl-1H-pyrazol-5-yl)pyrimidin-2-amine]",1.39
21,"Cn1nccc1Nc1nccc(-c2cc3n4c(nnc4c2)[C@@H](Cc2ccc(F)cc2)CCO3)n1 [(S) I-58, 4-(9-(4-fluorobenzyl)-8,9-dihydro-7H-6-oxa-1,2,2a^1-triazabenzo[cd]azulen-4-yl)-N-(1-methyl-1H-pyrazol-5-yl)pyrimidin-2-amine]",0.311
22,"COc1ccc(C[C@H]2CC(=O)N(C)c3cc(-c4ccnc(Nc5ccnn5C)n4)cc4nnc2n34)cc1 [(S) I-62, 9-(4-methoxybenzyl)-6-methyl-4-(2-((1-methyl-1H-pyrazol-5-yl)amino)pyrimidin-4-yl)-8,9-dihydro-1,2,2a^1,6-tetraazabenzo[cd]azulen-7(6H)-one]",44
23,"CCC[C@H]1CC(=O)N(C)c2cc(-c3ccnc(Nc4ccnn4C)n3)cc3nnc1n23 [(S) I-64, 6-methyl-4-(2-((1-methyl-1H-pyrazol-5-yl)amino)pyrimidin-4-yl)-9-propyl-8,9-dihydro-1,2,2a^1,6-tetraazabenzo[cd]azulen-7(6H)-one]",0.149
24,"CN1C(=O)C[C@@H](C2CC2)c2nnc3cc(-c4ccnc(Nc5ccnn5C)n4)cc1n23 [(S) I-65, 9-cyclopropyl-6-methyl-4-(2-((1-methyl-1H-pyrazol-5-yl)amino)pyrimidin-4-yl)-8,9-dihydro-1,2,2a^1,6-tetraazabenzo[cd]azulen-7(6H)-one]",119
25,"Cn1nccc1Nc1nccc(-c2cc3n4c(nnc4c2)[C@@H](Oc2ccc(F)cc2)CCO3)n1 [(S) I-66, 4-(9-(4-fluorophenoxy)-8,9-dihydro-7H-6-oxa-1,2,2a^1-triazabenzo[cd]azulen-4-yl)-N-(1-methyl-1H-pyrazol-5-yl)pyrimidin-2-amine]",0.02
26,"CN1C(=O)C[C@@H](CC(F)(F)F)c2nnc3cc(-c4ccnc(Nc5ccnn5C)n4)cc1n23 [(S) I-71, 6-methyl-4-(2-((1-methyl-1H-pyrazol-5-yl)amino)pyrimidin-4-yl)-9-(2,2,2-trifluoroethyl)-8,9-dihydro-1,2,2a^1,6-tetraazabenzo[cd]azulen-7(6H)-one]",189
27,"COc1ccc(C[C@H]2CC(=O)N(C)c3cc(-c4ccnc(Nc5ccnn5C)c4)cc4nnc2n34)c(F)c1 [(S) I-74, 9-(2-fluoro-4-methoxybenzyl)-6-methyl-4-(2-((1-methyl-1H-pyrazol-5-yl)amino)pyridin-4-yl)-8,9-dihydro-1,2,2a^1,6-tetraazabenzo[cd]azulen-7(6H)-one]",2.85
28,"CC(C)C[C@H]1CC(=O)N(C)c2cc(-c3ccnc(Nc4ccnn4C)c3)cc3nnc1n23 [(S) I-75, 9-isobutyl-6-methyl-4-(2-((1-methyl-1H-pyrazol-5-yl)amino)pyridin-4-yl)-8,9-dihydro-1,2,2a^1,6-tetraazabenzo[cd]azulen-7(6H)-one]",718
29,"Cn1nccc1Nc1nccc(-c2cc3n4c(nnc4c2)[C@@H](Oc2cncc(Cl)c2)CCO3)n1 [(S) I-77, 4-(9-((5-chloropyridin-3-yl)oxy)-8,9-dihydro-7H-6-oxa-1,2,2a^1-triazabenzo[cd]azulen-4-yl)-N-(1-methyl-1H-pyrazol-5-yl)pyrimidin-2-amine]",< 0.02
30,"Cn1nccc1Nc1cc(-c2cc3n4c(nnc4c2)[C@@H](Oc2cncc(Cl)c2)CCO3)ccn1 [(S) I-78, 4-(9-((5-chloropyridin-3-yl)oxy)-8,9-dihydro-7H-6-oxa-1,2,2a^1-triazabenzo[cd]azulen-4-yl)-N-(1-methyl-1H-pyrazol-5-yl)pyridin-2-amine]",< 0.02

# From patent publication US9867833B2, “Serine/threonine kinase inhibitors” (GENENTECH, INC., priority 2013, dated 2018)
